Measured values published in patent US9278943B2, “Methods of using as analgesics 1-benzyl-1-hydroxy-2, 3-diamino-propyl amines, 3-benzyl-3-hydroxy-2-amino-propionic acid amides and related compounds” (Exonhit Therapeutics SA, priority 2005, dated 2016).
Counter-ions that a name gives are not always drawn. Like-named read-outs stand apart in the source and are kept apart here.

Tests used:
[1] = system: tactile allodynia in the rat Chung model (L5/L6 spinal nerve ligation); experiment: Chung model: reversal of tactile allodynia (von Frey hairs) after spinal nerve ligation; assay type: in vivo; conditions: read-out: Peak % Pain reversal: time post dose; for inhibition in vivo at 0.3 mg/kg: 300 μg/kg IP; for inhibition in vivo at 1 mg/kg: 1000 μg/kg IP
Text: An art-accepted model or assay for measuring an analgesic effect of a compound in chronic pain (in particular peripheral neuropathy) is the model known as Kim and Chung 1992, Pain […], pp 355-363 (Chung model). This model involves the surgical ligation of the L5 (and optionally the L6) spinal nerves on one side in experimental animals. Rats recovering from the surgery gain weight and display a level of general activity similar to that of normal rats. However, these rats develop abnormalities of the foot, wherein the hindpaw is moderately everted and the toes are held together. More importantly, the hindpaw on the side affected by the surgery appears to become sensitive to low-threshold mechanical stimuli and will perceive pain instead of the faint sensation of touch. This sensitivity to normally non-painful touch, called “tactile allodynia”, develops within the first week after surgery and lasts for at least two months. The allodynia response includes lifting the affected hindpaw to escape from the stimulus, licking the paw and holding it in the air for many seconds. None of these responses is normally seen in the control group.
To produce the tactile allodynia, rats are anesthetized before surgery. The surgical site is shaved and prepared either with betadine or Novacaine. Incision is made from the thoracic vertebra Xlll down toward the sacrum. Muscle tissue is separated from the spinal vertebra (left side) at the L4-S2 levels. The L6 vertebra is located and the transverse process is carefully removed with a small rongeur to expose the L4-L6 spinal nerves. The L5 and L6 spinal nerves are isolated and tightly ligated with 6-0 silk thread. The same procedure is done on the right side as a control, except no ligation of the spinal nerves is performed.
After a complete hemostasis is confirmed, the wounds are sutured. A small amount of antibiotic ointment is applied to the incised area, and the rat is transferred to the recovery plastic cage under a regulated heat-temperature lamp.
On the day of the experiment, at least seven days after the surgery, typically six rats per test group are administered the test drugs by intraperitoneal (i.p.) injection or oral gavage (p.o.). For i.p. administration, the compounds are formulated in H2O and given in a volume of 1 ml/kg body weight by injecting into the intraperitoneal cavity. For p.o. administration, the compounds are formulated in H2O and given in a volume of 1 ml/kg body weight using an 18-gauge, 3 inch gavage needle that is slowly inserted through the esophagus into the stomach.
Tactile allodynia is assessed via von Frey hairs, which are a series of fine hairs with incremental differences in stiffness. Rats are placed in a plastic cage with a wire mesh bottom and allowed to acclimate for approximately 30 minutes. To establish the pre-drug baseline, the von Frey hairs are applied perpendicularly through the mesh to the mid-plantar region of the rats' hindpaw with sufficient force to cause slight buckling and held for 6-8 seconds. The applied force has been calculated to range from 0.41 to 15.1 grams. If the paw is sharply withdrawn, it is considered a positive response. A normal animal will not respond to stimuli in this range, but a surgically ligated paw will be withdrawn in response to a 1-2 gram hair. The 50% paw withdrawal threshold is determined using the method of Dixon, W. J., Ann. Rev. Pharmacol. Toxicol. 20:441-462 (1980) hereby incorporated by reference. Tactile allodynia is measured prior to and 15, 30, and 60 minutes after drug administration. The post-drug threshold is compared to the pre-drug threshold and the percent reversal of tactile sensitivity is calculated based on a normal threshold of 15.1 grams.
Table 1 below indicates the degree of pain reversal obtained in the Chung model with exemplary compounds used in accordance with the invention. […]

GlcCer synthase (GCS) = molecular target: T1, GlcCer synthase (GCS) (Homo sapiens, UniProt Q16739); conditions: cited from earlier work
T1 sequence (Q16739 1-394): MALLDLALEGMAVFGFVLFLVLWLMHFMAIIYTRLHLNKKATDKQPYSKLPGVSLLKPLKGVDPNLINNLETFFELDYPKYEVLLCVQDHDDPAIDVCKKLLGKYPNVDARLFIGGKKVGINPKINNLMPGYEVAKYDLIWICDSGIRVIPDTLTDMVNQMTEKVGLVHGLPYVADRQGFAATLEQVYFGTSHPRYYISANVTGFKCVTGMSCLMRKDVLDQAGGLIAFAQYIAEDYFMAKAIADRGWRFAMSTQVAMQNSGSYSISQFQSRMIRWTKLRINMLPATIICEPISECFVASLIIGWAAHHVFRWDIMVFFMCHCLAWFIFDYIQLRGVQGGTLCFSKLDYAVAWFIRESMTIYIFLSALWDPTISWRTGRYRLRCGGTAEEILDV

synaptic function = conditions: cited from earlier work
[2] = system: glycosphingolipid biosynthesis; conditions: via inhibition of glycosphingolipid biosynthesis; cited from earlier work
[3] = system: transient forebrain ischemia in rats; conditions: treatment after transient forebrain ischemia in rats; 8-arm maze task; cited from earlier work
[4] = 1 h, 30 μg/kg IP, peak at 60 min post dose

In the case of N[C@@H](CN1CCOCC1)[C@@H](O)c1ccccc1 (as salt: hydrochloride) [Compound 2, L-threo-2-Amino-3-morpholino-1-phenylpropan-1-ol dihydrochloride], the melting point is reported as 166.4 to 170.9 °C.
Compound N[C@@H](CN1CCCC1)[C@@H](O)c1ccc2c(c1)OCCO2 (racemic) [Compound 6, DL-threo-2-Amino-1-(2,3-dihydrobenzo[b][1,4]dioxin-6-yl)-3-(pyrrolidin-1-yl)propan-1-ol] has an inhibition in vivo at 0.03 mg/kg [1, 4] of 92%.
Work on CCCCCCCCCC(=O)N[C@@H](CN1CCCC1)[C@@H](O)c1ccc2c(c1)OCCO2 (racemic) [Compound 7, N-(DL-threo-1-(2,3-dihydrobenzol[b][1,4]dioxin-6-yl)-1-hydroxy-3-(pyrrolidin-1-yl)propan-2-yl)decanamide] yielded an inhibition in vivo at 0.001 mg/kg ([1]; 0.5 h, 1 μg/kg IP, peak at 30 min post dose) of 26%.
With COc1ccc([C@H](O)[C@@H](N)CN2CCCC2)cc1 (racemic) [Compound 9, DL-threo-2-Amino-1-(4-methoxyphenyl)-3-(pyrrolidin-1-yl)propan-1-ol] the inhibition in vivo at 0.03 mg/kg [1, 4] was 88%.
In the case of N[C@@H](C(=O)N1CCCC1)[C@@H](O)c1ccc(Cl)c(Cl)c1 (racemic) [Compound 15, DL-threo-2-Amino-3-(3,4-dichlorophenyl)-3-hydroxy-1-(pyrrolidin-1-yl)propan-1-one hydrochloride], the inhibition in vivo at 0.3 mg/kg ([1]; 1 h, peak at 60 min post dose) is reported as 42%.
N[C@@H](C(=O)N1CCCC1)[C@@H](O)c1ccccc1 (racemic) [Compound 16, DL-threo-2-Amino-3-hydroxy-3-phenyl-1-(pyrrolidin-1-yl)propan-1-one hydrochloride] showed an inhibition in vivo at 0.3 mg/kg ([1]; 1 h, peak at 60 min post dose) of 93%.
With Cc1ccc([C@H](O)[C@@H](N)C(=O)N2CCCC2)cc1 (racemic) [Compound 17, DL-threo-2-Amino-3-hydroxy-1-(pyrrolidin-1-yl)-3-p-tolylpropan-1-one hydrochloride] the inhibition in vivo at 0.3 mg/kg ([1]; 1 h, peak at 60 min post dose) was 100%.
Compound CCCCCCCCCC(=O)N[C@@H](CN1CCOCC1)[C@H](O)c1ccccc1 (racemic) [DL-erythro-PDMP, 1-Phenyl-2-decanoylamino-3-morpholino-1-propanol, reference compound] has an inhibition in vivo at 1 mg/kg ([1]; 0.5 h, peak at 30 min post dose) of 68%.
N[C@@H](CN1CCOCC1)[C@@H](O)c1ccccc1 [Compound 2, L-threo-2-Amino-3-morpholino-1-phenylpropan-1-ol dihydrochloride] gave an inhibition in vivo at 0.1 mg/kg ([1]; 1 h, 100 μg/kg IP, peak at 60 min post dose) of 91%.
C[C@H](N[C@H](CN1CCOCC1)[C@H](O)c1ccccc1)c1ccccc1 [Compound 5, D-threo-2-((S)-1-Phenylethylamino)-3-morpholino-1-phenylpropan-1-ol dihydrochloride] showed an inhibition in vivo at 0.3 mg/kg ([1]; 1 h, peak at 60 min post dose) of 85%.
For CCCCCCCCCCCCCCCC(=O)N[C@H](CN1CCCC1)[C@H](O)c1ccc(O)cc1 [D-threo-4′-hydroxy-P4], the “inhibition of GCS” value (GlcCer synthase (GCS)) is given as “one of the most potent inhibitor of GCS”.
In the case of CCCCCCCCCC(=O)N[C@H](CN1CCOCC1)[C@H](O)c1ccccc1 [D-threo-PDMP, 1-Phenyl-2-decanoylamino-3-morpholino-1-propanol], the inhibition in vivo at 1 mg/kg ([1]; 1 h, peak at 60 min post dose) is listed as 77%, the “effect on synaptic function” value (synaptic function) is listed as “suppresses synaptic function” and the antitumor activity [2] is listed as “has antitumor activity”.
In the case of CCCCCCCCCC(=O)N[C@@H](CN1CCOCC1)[C@@H](O)c1ccccc1 [L-threo-PDMP, (1S,2S)-1-phenyl-2-decanoylamino-3-morpholino-1-propanol, reference compound], the inhibition in vivo at 0.03 mg/kg ([1]; 0.5 h, 30 μg/kg PO, peak at 30 min post dose) is given as 100% and the “deficit of a well learned spatial memory” value [3] is given as “ameliorated the deficit”.
In the case of O=C(N[C@H](CN1CCCC1)[C@H](O)c1ccccc1)OCc1ccccc1 [PBPP, D-threo-1-phenyl-2-benzyloxycarbonylamino-3-pyrrolidino-1-propanol], the “inhibition of GCS” value (GlcCer synthase (GCS)) is given as “potent GCS inhibitor”.
